According to patent publication US9738634B2, “Heterocyclic amide compound and herbicide” (SYNGENTA PARTICIPATIONS AG, priority 2013, dated 2017):

Assays:
Type in all cases: in vivo
Indian mallow [1] = experiment: Test Example 3: weedkilling efficacy through soil treatment; K: Indian mallow; conditions: treatment dosage 315 g/ha
How it was run: (§1)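 Crop and weed responses were judged three weeks after a uniform surface spray of the water-diluted emulsion at the given g/ha rate. Seeds sat beneath about 1.5 cm of sterilized diluvial soil, and boxes stood in a greenhouse at 25 to 30° C.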

corn [2] = experiment: Test Example 3: soil treatment, effect on crop; c: corn; conditions: treatment dosage 315 g/ha
How it was run: as §1

transplanted rice = experiment: Test Example 1: preemergent weed treatment in the submerged state, effect on crop; a: transplanted rice; conditions: treatment dosage 252 g/ha
How it was run: (§2)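 Emulsion diluted with water to the specified per-hectare dosage is applied onto flood water (4 cm) over alluvial soil on the sowing day, with barnyard grass, bulrush and pondweed seeded and rice (2.5-leaf) transplanted; plants grow at 25–30 °C and are rated at 3 weeks.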

Italian ryegrass [3] = experiment: Test Example 4: weedkilling efficacy by foliar treatment; I: Italian ryegrass; conditions: treatment dosage 315 g/ha
How it was run: (§3)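 Seeds are spot-sown into sterilized diluvial soil and covered with about 1.5 cm of soil. After 14 days' greenhouse growth at 25 to 30° C, plants are sprayed on stems and leaves with diluted emulsion at the stated g/ha rate, then scored at 3 weeks.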

black-grass [4] = experiment: Test Example 4: weedkilling efficacy by foliar treatment; H: black-grass; conditions: treatment dosage 315 g/ha
How it was run: as §3

wheat [5] = experiment: Test Example 3: soil treatment, effect on crop; e: wheat; conditions: treatment dosage 315 g/ha
How it was run: as §1

birds-eye speedwell [6] = experiment: Test Example 4: weedkilling efficacy by foliar treatment; p: birds-eye speedwell; conditions: treatment dosage 315 g/ha
How it was run: as §3

redroot pigweed [7] = experiment: Test Example 3: weedkilling efficacy through soil treatment; L: redroot pigweed; conditions: treatment dosage 315 g/ha
How it was run: as §1

wheat [8] = experiment: Test Example 4: foliar treatment, effect on crop; e: wheat; conditions: treatment dosage 315 g/ha
How it was run: as §3

directly sown rice [9] = experiment: Test Example 3: soil treatment, effect on crop; b: directly sown rice; conditions: treatment dosage 315 g/ha
How it was run: as §1

bulrush [10] = experiment: Test Example 1: weedkilling efficacy, preemergent weed treatment in the submerged state; B: bulrush; conditions: treatment dosage 252 g/ha
How it was run: as §2

green foxtail [11] = experiment: Test Example 4: weedkilling efficacy by foliar treatment; E: green foxtail; conditions: treatment dosage 315 g/ha
How it was run: as §3

beet [12] = experiment: Test Example 4: foliar treatment, effect on crop; f: beet; conditions: treatment dosage 315 g/ha
How it was run: as §3

barnyard grass [13] = experiment: Test Example 1: weedkilling efficacy, preemergent weed treatment in the submerged state; A: barnyard grass; conditions: treatment dosage 252 g/ha
How it was run: as §2

bulrush [14] = experiment: Test Example 2: weedkilling efficacy, growth period weed treatment in the submerged state; B: bulrush; conditions: treatment dosage 252 g/ha
How it was run: (§4)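 First, alluvial soil in pots is flooded to 4 cm and mixed seed is sown. Next, plants grow in a greenhouse at 25 to 30° C until the 1-2 leaf stage. Then diluted emulsion is applied onto the water surface at the given g/ha rate, and injury is assessed after 3 weeks.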

beet [15] = experiment: Test Example 3: soil treatment, effect on crop; f: beet; conditions: treatment dosage 315 g/ha
How it was run: as §1

Italian ryegrass [16] = experiment: Test Example 3: weedkilling efficacy through soil treatment; I: Italian ryegrass; conditions: treatment dosage 315 g/ha
How it was run: as §1

green foxtail [17] = experiment: Test Example 3: weedkilling efficacy through soil treatment; E: green foxtail; conditions: treatment dosage 315 g/ha
How it was run: as §1

corn [18] = experiment: Test Example 4: foliar treatment, effect on crop; c: corn; conditions: treatment dosage 315 g/ha
How it was run: as §3

oval-leafed pondweed [19] = experiment: Test Example 1: weedkilling efficacy, preemergent weed treatment in the submerged state; C: oval-leafed pondweed; conditions: treatment dosage 252 g/ha
How it was run: as §2

fig-leafed goosefoot [20] = experiment: Test Example 3: weedkilling efficacy through soil treatment; M: fig-leafed goosefoot; conditions: treatment dosage 315 g/ha
How it was run: as §1

barnyard grass [21] = experiment: Test Example 2: weedkilling efficacy, growth period weed treatment in the submerged state; A: barnyard grass; conditions: treatment dosage 252 g/ha
How it was run: as §4

redroot pigweed [22] = experiment: Test Example 4: weedkilling efficacy by foliar treatment; L: redroot pigweed; conditions: treatment dosage 315 g/ha
How it was run: as §3

chickweed [23] = experiment: Test Example 4: weedkilling efficacy by foliar treatment; N: chickweed; conditions: treatment dosage 315 g/ha
How it was run: as §3

crabgrass [24] = experiment: Test Example 3: weedkilling efficacy through soil treatment; D: crabgrass; conditions: treatment dosage 315 g/ha
How it was run: as §1

oval-leafed pondweed [25] = experiment: Test Example 2: weedkilling efficacy, growth period weed treatment in the submerged state; C: oval-leafed pondweed; conditions: treatment dosage 252 g/ha
How it was run: as §4

crabgrass [26] = experiment: Test Example 4: weedkilling efficacy by foliar treatment; D: crabgrass; conditions: treatment dosage 315 g/ha
How it was run: as §3

Indian mallow [27] = experiment: Test Example 4: weedkilling efficacy by foliar treatment; K: Indian mallow; conditions: treatment dosage 315 g/ha
How it was run: as §3

chickweed [28] = experiment: Test Example 3: weedkilling efficacy through soil treatment; N: chickweed; conditions: treatment dosage 315 g/ha
How it was run: as §1

catchweed = experiment: Test Example 4: weedkilling efficacy by foliar treatment; O: catchweed; conditions: treatment dosage 315 g/ha
How it was run: as §3

directly sown rice [29] = experiment: Test Example 4: foliar treatment, effect on crop; b: directly sown rice; conditions: treatment dosage 315 g/ha
How it was run: as §3

fig-leafed goosefoot [30] = experiment: Test Example 4: weedkilling efficacy by foliar treatment; M: fig-leafed goosefoot; conditions: treatment dosage 315 g/ha
How it was run: as §3

birds-eye speedwell [31] = experiment: Test Example 3: weedkilling efficacy through soil treatment; p: birds-eye speedwell; conditions: treatment dosage 315 g/ha
How it was run: as §1

soybean [32] = experiment: Test Example 4: foliar treatment, effect on crop; d: soybean; conditions: treatment dosage 315 g/ha
How it was run: as §3

black-grass [33] = experiment: Test Example 3: weedkilling efficacy through soil treatment; H: black-grass; conditions: treatment dosage 315 g/ha
How it was run: as §1

soybean [34] = experiment: Test Example 3: soil treatment, effect on crop; d: soybean; conditions: treatment dosage 315 g/ha
How it was run: as §1

Row | SMILES | K (Indian mallow) weedkilling efficacy grade (Indian mallow [1]) | c (corn) effect on crop grade (corn [2]) | a (transplanted rice) effect on crop grade (transplanted rice) | I (Italian ryegrass) weedkilling efficacy grade (Italian ryegrass [3]) | H (black-grass) weedkilling efficacy grade (black-grass [4]) | e (wheat) effect on crop grade (wheat [5]) | P (birds-eye speedwell) weedkilling efficacy grade (birds-eye speedwell [6]) | L (redroot pigweed) weedkilling efficacy grade (redroot pigweed [7]) | e (wheat) effect on crop grade (wheat [8]) | b (directly sown rice) effect on crop grade (directly sown rice [9]) | B (bulrush) weedkilling efficacy grade (bulrush [10]) | E (green foxtail) weedkilling efficacy grade (green foxtail [11]) | f (beet) effect on crop grade (beet [12]) | A (barnyard grass) weedkilling efficacy grade (barnyard grass [13]) | B (bulrush) weedkilling efficacy grade (bulrush [14]) | f (beet) effect on crop grade (beet [15]) | I (Italian ryegrass) weedkilling efficacy grade (Italian ryegrass [16]) | E (green foxtail) weedkilling efficacy grade (green foxtail [17]) | c (corn) effect on crop grade (corn [18]) | C (oval-leafed pondweed) weedkilling efficacy grade (oval-leafed pondweed [19]) | also measured
1 | CC1=C(c2ccccc2)C(=O)N(C(C)(C)C(=O)Nc2cccc(Br)n2)CO1 [B-2-31] | 0 (weed kill ratio 5% or less (practically no effect)) | 0 (weed kill ratio 5% or less (practically no effect)) | 0 (weed kill ratio 5% or less (practically no effect)) | 5 (weed kill ratio 90% or more, (practically complete withering)) | 5 (weed kill ratio 90% or more, (practically complete withering)) | 5 (weed kill ratio 90% or more, (practically complete withering)) | 4 (weed kill ratio 70% or more, less than 90%) | 5 (weed kill ratio 90% or more, (practically complete withering)) | 5 (weed kill ratio 90% or more, (practically complete withering)) | 5 (weed kill ratio 90% or more, (practically complete withering)) | 5 (weed kill ratio 90% or more, (practically complete withering)) | 5 (weed kill ratio 90% or more, (practically complete withering)) | 4 (weed kill ratio 70% or more, less than 90%) | 5 (weed kill ratio 90% or more, (practically complete withering)) | 5 (weed kill ratio 90% or more, (practically complete withering)) | 5 (weed kill ratio 90% or more, (practically complete withering)) | 5 (weed kill ratio 90% or more, (practically complete withering)) | 5 (weed kill ratio 90% or more, (practically complete withering)) | 4 (weed kill ratio 70% or more, less than 90%) | 5 (weed kill ratio 90% or more, (practically complete withering)) | M (fig-leafed goosefoot) weedkilling efficacy grade (fig-leafed goosefoot [20]): 4 (weed kill ratio 70% or more, less than 90%); A (barnyard grass) weedkilling efficacy grade (barnyard grass [21]): 5 (weed kill ratio 90% or more, (practically complete withering)); L (redroot pigweed) weedkilling efficacy grade (redroot pigweed [22]): 5 (weed kill ratio 90% or more, (practically complete withering)); N (chickweed) weedkilling efficacy grade (chickweed [23]): 5 (weed kill ratio 90% or more, (practically complete withering)); D (crabgrass) weedkilling efficacy grade (crabgrass [24]): 5 (weed kill ratio 90% or more, (practically complete withering)); C (oval-leafed pondweed) weedkilling efficacy grade (oval-leafed pondweed [25]): 0 (weed kill ratio 5% or less (practically no effect)); D (crabgrass) weedkilling efficacy grade (crabgrass [26]): 5 (weed kill ratio 90% or more, (practically complete withering)); K (Indian mallow) weedkilling efficacy grade (Indian mallow [27]): 5 (weed kill ratio 90% or more, (practically complete withering)); N (chickweed) weedkilling efficacy grade (chickweed [28]): 5 (weed kill ratio 90% or more, (practically complete withering)); O (catchweed) weedkilling efficacy grade (catchweed): 3 (weed kill ratio 40% or more, less than 70%); b (directly sown rice) effect on crop grade (directly sown rice [29]): 5 (weed kill ratio 90% or more, (practically complete withering)); M (fig-leafed goosefoot) weedkilling efficacy grade (fig-leafed goosefoot [30]): 4 (weed kill ratio 70% or more, less than 90%); P (birds-eye speedwell) weedkilling efficacy grade (birds-eye speedwell [31]): 5 (weed kill ratio 90% or more, (practically complete withering)); d (soybean) effect on crop grade (soybean [32]): 5 (weed kill ratio 90% or more, (practically complete withering)); H (black-grass) weedkilling efficacy grade (black-grass [33]): 5 (weed kill ratio 90% or more, (practically complete withering)); d (soybean) effect on crop grade (soybean [34]): 0 (weed kill ratio 5% or less (practically no effect))
2 | CC1=C(c2ccc(Cl)s2)C(=O)N(C(C)(C)C(=O)Nc2cccc(Cl)n2)CO1 [B-2-02] | 3 (weed kill ratio 40% or more, less than 70%) | 0 (weed kill ratio 5% or less (practically no effect)) | 0 (weed kill ratio 5% or less (practically no effect)) | 3 (weed kill ratio 40% or more, less than 70%) | 4 (weed kill ratio 70% or more, less than 90%) | 3 (weed kill ratio 40% or more, less than 70%) | 1 (weed kill ratio 5% or more, less than 20%) | 3 (weed kill ratio 40% or more, less than 70%) | 0 (weed kill ratio 5% or less (practically no effect)) | 2 (weed kill ratio 20% or more, less than 40%) | 5 (weed kill ratio 90% or more, (practically complete withering)) | 3 (weed kill ratio 40% or more, less than 70%) | 3 (weed kill ratio 40% or more, less than 70%) | 5 (weed kill ratio 90% or more, (practically complete withering)) | 5 (weed kill ratio 90% or more, (practically complete withering)) | 0 (weed kill ratio 5% or less (practically no effect)) | 5 (weed kill ratio 90% or more, (practically complete withering)) | 3 (weed kill ratio 40% or more, less than 70%) | 0 (weed kill ratio 5% or less (practically no effect)) | 5 (weed kill ratio 90% or more, (practically complete withering)) | M (fig-leafed goosefoot) weedkilling efficacy grade (fig-leafed goosefoot [20]): 0 (weed kill ratio 5% or less (practically no effect)); A (barnyard grass) weedkilling efficacy grade (barnyard grass [21]): 5 (weed kill ratio 90% or more, (practically complete withering)); L (redroot pigweed) weedkilling efficacy grade (redroot pigweed [22]): 4 (weed kill ratio 70% or more, less than 90%); N (chickweed) weedkilling efficacy grade (chickweed [23]): 0 (weed kill ratio 5% or less (practically no effect)); D (crabgrass) weedkilling efficacy grade (crabgrass [24]): 5 (weed kill ratio 90% or more, (practically complete withering)); C (oval-leafed pondweed) weedkilling efficacy grade (oval-leafed pondweed [25]): 5 (weed kill ratio 90% or more, (practically complete withering)); D (crabgrass) weedkilling efficacy grade (crabgrass [26]): 4 (weed kill ratio 70% or more, less than 90%); K (Indian mallow) weedkilling efficacy grade (Indian mallow [27]): 0 (weed kill ratio 5% or less (practically no effect)); N (chickweed) weedkilling efficacy grade (chickweed [28]): 3 (weed kill ratio 40% or more, less than 70%); O (catchweed) weedkilling efficacy grade (catchweed): 0 (weed kill ratio 5% or less (practically no effect)); b (directly sown rice) effect on crop grade (directly sown rice [29]): 4 (weed kill ratio 70% or more, less than 90%); M (fig-leafed goosefoot) weedkilling efficacy grade (fig-leafed goosefoot [30]): 3 (weed kill ratio 40% or more, less than 70%); P (birds-eye speedwell) weedkilling efficacy grade (birds-eye speedwell [31]): 2 (weed kill ratio 20% or more, less than 40%); d (soybean) effect on crop grade (soybean [32]): 0 (weed kill ratio 5% or less (practically no effect)); H (black-grass) weedkilling efficacy grade (black-grass [33]): 5 (weed kill ratio 90% or more, (practically complete withering)); d (soybean) effect on crop grade (soybean [34]): 0 (weed kill ratio 5% or less (practically no effect))
